Results as given in patent US10966430B2, “Natural fungicide composition” (GRIFFITH FOODS INTERNATIONAL INC., priority 2013, dated 2021).

Test system: Mycosphaerella fijiensis
Assay: Second field trials: in vitro fungicidal activity, length of germinated ascospores on water-agar
Assay type: cell-based
Settings: for % Inhibition: ascospores incubated 48 hours at 26° C. in darkness
Method: Additional field trials were conducted to evaluate the in vitro fungicidal activity of 14 composition embodiments in the treatment of Mycosphaerella fijiensis.
Culture media comprising 2% water-agar (Difco® Bacto® Agar) and 0.001, 0.01, 0.1, 1, 10, 100, and 1,000 mg/L of the active substance were each prepared in a petri dish for each composition. A separate culture media without any active substance was used as a control. For comparative fungicides F-11-01 to F-11-12 listed in Table 1 below, the active substance was the same as the composition as a whole.
Ascospores of Mycosphaerella fijiensis obtained from a banana plantation that had not been treated with any fungicides were discharged into each petri dish. After discharging the ascospores of Mycosphaerella fijiensis, each sample was incubated for 48 hours at 26° C. in complete darkness. After 48 hours of incubation, the length of 100 germinated ascospores at each concentration was measured.
After collecting the data, the average length of the germinated ascospores was calculated for each concentration. The average inhibition percentage was calculated for each sample fungicide at each concentration using the following formula:
where: • Lcontrol=average length of germinated ascospores of control sample • Lsample=average length of germinated ascospores of sample fungicide.
The average inhibition percentage was used to calculate EC50 for each sample fungicide. EC50 is the half maximal effective concentration, which refers to the concentration of sample fungicide that induces a response halfway between the baseline and maximum after a specified exposure time.

**Q.** With Polysorbate 80 [Fungicide F-11-09] as the substance, how does the “% Inhibition” value (0.001 mg/L) read?
**A.** 37.98%

**Q.** And the “% Inhibition” value (0.01 mg/L)?
**A.** 42.6%

**Q.** And the “% Inhibition” value (0.1 mg/L)?
**A.** 11.91%

**Q.** And the “% Inhibition” value (1 mg/L)?
**A.** 31.87%

**Q.** And the “% Inhibition” value (10 mg/L)?
**A.** 52.04%

**Q.** And the “% Inhibition” value (100 mg/L)?
**A.** 46.24%

**Q.** What about the “Natural Log” value (natural log belonging to the EC50 column) of the same substance?
**A.** 10.45
